What was measured:
Format in all cases: cell-based, Escherichia coli
E. coli cells = assay: Membrane depolarization, DiBAC4(3) uptake by flow cytometry after IPTG induction; details: 5 and 20 minutes after 1 mM IPTG
Procedure: Cells were grown to OD600≅0.4 in LB and then induced with IPTG to a final concentration of 1 mM. At 0, 5 and 20 minutes culture samples were diluted 1:10 in filtered AB minimal medium (Clark and MaalØe, 1967) +10 μg ml-1 DiBAC4(3) (Sigma-Aldrich). After 20 minutes incubation in the dark at room temperature, cells were analysed in a Flowcytometry LSRII (Becton Dickinson) equipped with an argon ion laser and a krypton laser (both Spectra Physics). DiBAC4(3) was detected in channel 580 using 488 nm laser. Parameters were collected as logarithmic signals. The two populations were easily separated in each staining experiment. The data obtained was analyzed by winMDI software.
To examine whether DinQ affects membrane polarization, the inventors tested the ability of E. coli cells with dinQ containing plasmids to take up the dye DiBAC4(3) [bis-(1,3-dibarbituric acid)-trimethine oxanol]. The dye enters cells upon membrane depolarization leading to increased fluorescence. Cells were taken 5 and 20 minutes after induction of DinQ expression with IPTG, incubated with DiBAC4(3) for 20 min and analyzed by flow cytometry (FIG. 9).

wild type E. coli = assay: IPTG sensitivity spot assay, DinQ ORFs over-expressed from pET28b(+)
Procedure: A. IPTG sensitivity in strains plated on IPTG. An aliquot or serially diluted (10-1-10-5 cells ml-1) log-phase cultures of wild type E. coli with empty expression vector pET28b(+) or vector constructs with alternative DinQ ORFs were spotted onto LB plates containing no IPTG (left panel) or 0.6 mM IPTG (right panel). The […] indicates a toxic effect with DinQ ORF 2-5 when the translation is forced by IPTG induction.
Expression plasmids pET28b-ORF1, pET28b-ORF2, pET28b-ORF3, pET28b-ORF4 and pET28b-ORF5 contains the DinQ ORF1, ORF2, ORF3, ORF4 and ORFS open reading frames inserted in the NcoI-BamHI restriction sites of the pET28b(+) vector (Novagen).
The mechanism underlying the UV sensitive phenotype of DinQ in a multicopy situation or under upregulation in an agrB mutant is unknown. The dinQ gene contain two putative open reading frames in which one of the reading frames encode three putative start codons (ii-iv, see FIG. 1C). […] To examine if any of the open reading frames mediate the UV sensitivity each reading frame were cloned into the expression vector pET28b(+) and expressed under control of IPTG (FIG. 4A). […] Next, DinQ ORF […] expression was titrated with increasing concentrations of IPTG (FIG. 4C) showing that ORF IV is highly toxic to the cells at very low doses of IPTG induction. […]

agrB mutant BK4043 = assay: Intracellular ATP concentration, luciferase-based assay; details: agrB mutant with up-regulated DinQ peptide vs wild type AB1157
Procedure: Aliquots of cells were harvested before and 20 minutes after induction with IPTG to a final concentration of 1 mM and washed once in 50 mM Tris-Acetate pH 7.75. ATP was extracted from washed cells by 1% (TCA) trichloraceticacid in 50 mM Tris-Acetate pH 7.75 for 10 minutes. Tris-acetate buffer (1 ml) was added 1:10 to obtain optimal pH of 7.75 before mixing with rL/L reagent (ENLITEN ATP assay, Promega) at room temperature. The amount of ATP extracted (RLU value) was measured with 20/20 Luminometer (Turner Designs) and related to the OD600 for each sample.
The effect of DinQ peptide on the intracellular ATP concentration was measured using a quantitative luciferase-based assay (see materials and methods for details). […] Extracts from uninduced and SOS-induced agrB cells and wild-type cells, AB1157, were analysed 20 minutes after exposure by UV irradiation (sublethal doses).

E. coli [1] = assay: Microscopy of E. coli overexpressing dinQ ORF5 upon IPTG induction; details: 4 h after IPTG 1 mM
Procedure: E. coli capable of overexpressing dinQ ORF5 were plated (LB agar 2%, kan, tet, amp) and incubated (O/N, 37° C.). A single colony was picked and grown (37° C., 16 h, 200 rpm) in liquid media (LB, kan, tet, amp). The culture was then adjusted to OD600=0.03 in fresh media (LB, kan, tet, amp) and allowed to grow (37° C., 16 h, 200 rpm) back to OD600=0.5 before induction with IPTG (1 mM). After incubation (4 h, 37° C., 200 rpm) an aliquot (200 μl) of the E. coli suspension was removed and fixed in MeOH (1 ml, −20° C.). After centrifugation (2000 rpm, 4° C., 5 min) the cells were aspirated and re-suspend in NaCl (0.9% in H2O). The samples were then spotted onto slides and allowed to dry (42° C.). The slides were then washed 3×H2O and allowed to air dry (RT) before microscopy (see FIG. 20).

E. coli [2] = assay: Small colony variant count after IPTG induction of dinQ ORF5; details: IPTG 1 mM
Procedure: E. coli capable of overexpressing dinQ ORFS were incubated (O/N, 37° C., 200 rpm) before subculturing to OD600=0.01 (LB, kan, tet, amp). After incubation (37° C., 200 rpm) to OD600=0.5 expression of the toxin was either induced with IPTG (1 mM) or not. At time points after the addition the bacteria were serially diluted (×10) and plated (LB, 2% agar). After incubation (16 h, 37° C.) the plates were counted. Colony size was estimated and those 10× smaller than a typical colony were counted as a small colony variant SCV (see FIG. 21).

E. coli ER2566 = assay: UV radiation survival spot assay of dinQ variants; details: UV irradiation of 24 J/m2, compared with intact dinQ (pBK444)
Excerpt: (§1) The spots in FIG. 22 represent E. coli ER2566 dilutions in the range of 100-10-5 (left to right). UV irradiation of 24 J/m2 was used to induce dinQ toxicity (right picture), and was compared to the unirradiated control assay (left picture). Control cells carry the vector plasmid (pKK232-8), and cells carrying the plasmid encoding intact dinQ (pBK444), were used as reference.
as §1, with “spots” for “spots in”, “23” for “22”, “10^0-10^−5” for “100-10-5”, “reference (see FIG. 23).” for “reference.”

Row | Substance | effect on membrane integrity / depolarization (DiBAC4(3) uptake) (E. coli cells) | toxicity of the dinQ peptide upon UV induction (E. coli ER2566) | further results
1 | DinQ ORF2: amino acid sequence of the dinQ II polypeptide (ORF-II), 49 aa (MRRDRQWMSKRMHSHSIAWRKRVIDKAIIVLGALIALLELIRFLLQLLN; listed as Escherichia coli) | rapid and dramatic effects on the membrane integrity |  | 
2 | ORF3: amino acid sequence of the dinQ III polypeptide (ORF-III), 42 aa (MSKRMHSHSIAWRKRVIDKAIIVLGALIALLELIRFLLQLLN; listed as Escherichia coli) | rapid and dramatic effects on the membrane integrity |  | 
3 | MIDKAIIVLGALIALLELIRFLLQLLN (listed as Escherichia coli) [ORF5, DinQ ORF-V peptide with N-terminal Met, form translated from GUG start codon, 27 aa] | rapid and dramatic effects on the membrane integrity |  | toxic/growth inhibitory effect on IPTG plates (wild type E. coli; pET28b(+) constructs, IPTG induction, absence of UV): strong toxicity; effect on membrane integrity / depolarization (DiBAC4(3) uptake) (E. coli cells; listed as DinQ ORF5): most pronounced; effect on intracellular ATP (agrB mutant BK4043): impairs the energy supply in the form of ATP; effect on membrane integrity (ghost cells) by microscopy (E. coli [1]): damages membrane integrity; colony phenotype after induction (E. coli [2]): appearance of small colony variants (SCV)
4 | ORF4: amino acid sequence of the dinQ IV polypeptide (ORF-IV), 38 aa (MHSHSIAWRKRVIDKAIIVLGALIALLELIRFLLQLLN; listed as Escherichia coli) | rapid and dramatic effects on the membrane integrity |  | toxicity on titration with increasing concentrations of IPTG (wild type E. coli; very low doses of IPTG induction): highly toxic
5 | MIDKAIIVLGALIALLELIRFLIQLLN (L23I variant of dinQ ORF V peptide) |  | maintain the toxicity | 
6 | MIDKAIIVLGAIVALLELIRFLLQLLN [L12I and I13V] |  | maintain the toxicity | 
7 | MIDKAIVVLGALIALLELIRFLLQLLN (I7V variant of dinQ ORF V peptide) |  | maintain the toxicity | 
8 | MIDKAIIVLKALIALLELIRFLLQLLN (G10K variant of dinQ ORF V peptide) |  | maintain the toxicity | 

From patent US9676829B2, “Antibacterial polypeptides and use thereof” (Oslo Universitetssykehus HF, priority 2009, dated 2017)
